Experimental data: patent US20240025883A1, “PYRIMIDIN-2-YL SULFONAMIDE DERIVATIVES” (Hoffmann-La Roche Inc., priority 2021, published 2024)

Biological target: human GPR17 short isoform (Homo sapiens (Human), UniProt Q13304)
Experiment: GPR17 cAMP assay (hGPR17 cAMP, antagonist mode against EC80 of MDL29,951)
Type: cell-based
Details: CHO-K1 cells stably expressing human GPR17 short isoform; EC80 of agonist MDL29,951; forskolin 15 μM
Summary of the method: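 CHO-K1 cells stably expressing untagged human GPR17 short isoform, 10,000/well in HBSS/10 mM HEPES/0.1% BSA pH 7.4. Compounds added with EC80 MDL29,951 and 0.5 mM IBMX, then 15 μM forskolin 5 min later, 30 min at room temperature; cAMP by TR-FRET, normalized to reference antagonist, sigmoidal fit.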

Chain of human GPR17 short isoform (Q13304 29-367): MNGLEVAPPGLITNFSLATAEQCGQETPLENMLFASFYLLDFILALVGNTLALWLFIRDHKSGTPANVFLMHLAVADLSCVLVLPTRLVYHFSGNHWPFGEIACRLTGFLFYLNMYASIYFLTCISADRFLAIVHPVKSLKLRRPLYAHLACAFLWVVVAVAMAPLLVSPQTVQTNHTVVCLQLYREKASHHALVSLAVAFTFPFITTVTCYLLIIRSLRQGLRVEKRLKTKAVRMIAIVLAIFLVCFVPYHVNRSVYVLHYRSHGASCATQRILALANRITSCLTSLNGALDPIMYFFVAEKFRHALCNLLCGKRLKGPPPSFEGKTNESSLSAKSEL

Compound | IC50 [nM]
COc1nc(NS(=O)(=O)c2c[nH]c3nc(C)ccc23)nc(OC)c1CC(F)F [Example 132, N-[5-(2,2-difluoroethyl)-4,6-dimethoxy-pyrimidin-2-yl]-6-methyl-1H-pyrrolo[2,3-b]pyridine-3-sulfonamide] | 39
COc1nc(NS(=O)(=O)c2c[nH]c3c(C(F)F)c(Cl)ccc23)ncc1CCC(F)F [Example 209, 6-chloro-7-(difluoromethyl)-N-[5-(3,3-difluoropropyl)-4-methoxy-pyrimidin-2-yl]-1H-indole-3-sulfonamide] | 68
COc1nc(NS(=O)(=O)c2c[nH]c3nc(C(F)F)ccc23)nc(OC)c1CC(F)CF (centres unmarked) [Example 287, 6-(Difluoromethyl)-N-[5-(2,3-Difluoropropyl)-4,6-Dimethoxy-Pyrimidin-2-Yl]-1H-Pyrrolo[2,3-b]Pyridine-3-Sulfonamide] | 114
COc1nc(NS(=O)(=O)c2c[nH]c3cc(Cl)ccc23)nc(OC)c1CC#N [Example 67, 6-chloro-N-[5-(cyanomethyl)-4,6-dimethoxy-pyrimidin-2-yl]-1H-indole-3-sulfonamide] | 65
COc1nc(NS(=O)(=O)c2csc3nc(Br)ccc23)nc(OC)c1C [Example 144, 6-bromo-N-(4,6-dimethoxy-5-methyl-pyrimidin-2-yl)thieno[2,3-b]pyridine-3-sulfonamide] | 50
COc1nc(NS(=O)(=O)c2c[nH]c3nc(Cl)ccc23)ncc1CC(F)F [Example 203, 6-chloro-N-[5-(2,2-difluoroethyl)-4-methoxy-pyrimidin-2-yl]-1H-pyrrolo[2,3-b]pyridine-3-sulfonamide] | 127
COc1nc(NS(=O)(=O)c2c[nH]c3cc(Cl)ccc23)ncc1C [Example 26, 6-chloro-N-(4-methoxy-5-methyl-pyrimidin-2-yl)-1H-indole-3-sulfonamide] | 809
COc1nc(NS(=O)(=O)c2c[nH]c3cc(Cl)ccc23)ncc1CC(F)C(F)F (centres unmarked) [Example 266, 6-chloro-N-[4-methoxy-5-(2,3,3-trifluoropropyl)pyrimidin-2-yl]-1H-indole-3-sulfonamide] | 90
COc1nc(NS(=O)(=O)c2c[nH]c3cc(Br)ccc23)ncc1CCC#N [Example 89, 6-bromo-N-[5-(2-cyanoethyl)-4-methoxy-pyrimidin-2-yl]-1H-indole-3-sulfonamide] | 212
COc1nc(NS(=O)(=O)c2c[nH]c3cc(F)ccc23)nc(OC)c1CCC#N [Example 259, N-[5-(2-cyanoethyl)-4,6-dimethoxy-pyrimidin-2-yl]-6-fluoro-1H-indole-3-sulfonamide] | 25
COc1nc(NS(=O)(=O)c2c[nH]c3c(SC(F)F)c(Cl)ccc23)nc(OC)c1OCCF [Example 106, 6-chloro-7-(difluoromethylthio)-N-[5-(2-fluoroethoxy)-4,6-dimethoxy-pyrimidin-2-yl]-1H-indole-3-sulfonamide] | 7
COc1nc(NS(=O)(=O)c2c[nH]c3c(F)c(C(F)F)ccc23)ncc1OCCF [Example 247, 6-(difluoromethyl)-7-fluoro-N-[5-(2-fluoroethoxy)-4-methoxy-pyrimidin-2-yl]-1H-indole-3-sulfonamide] | 42
COc1nc(NS(=O)(=O)c2csc3nc(C(F)F)ccc23)nc(OC)c1CC(F)F [Example 167, N-[5-(2,2-difluoroethyl)-4,6-dimethoxy-pyrimidin-2-yl]-6-(difluoromethyl)thieno[2,3-b]pyridine-3-sulfonamide] | 259
COc1nc(NS(=O)(=O)c2csc3cc(Cl)ccc23)ncc1CC(F)F [Example 154, 6-chloro-N-[5-(2,2-difluoroethyl)-4-methoxy-pyrimidin-2-yl]benzothiophene-3-sulfonamide] | 45
COc1nc(NS(=O)(=O)c2c[nH]c3c(C#N)c(Cl)ccc23)ncc1OCCF [Example 280, 6-Chloro-7-Cyano-N-[5-(2-Fluoroethoxy)-4-Methoxy-Pyrimidin-2-Yl]-1H-Indole-3-Sulfonamide] | 62
COc1nc(NS(=O)(=O)c2c[nH]c3cc(C(F)F)ccc23)nc(OC)c1CC(F)F [Example 236, N-[5-(2,2-difluoroethyl)-4,6-dimethoxy-pyrimidin-2-yl]-6-(difluoromethyl)-1H-indole-3-sulfonamide] | 14
COc1nc(NS(=O)(=O)c2c[nH]c3cc(Cl)ccc23)nc(OCF)c1Br [Example 83, N-[5-bromo-4-(fluoromethoxy)-6-methoxy-pyrimidin-2-yl]-6-chloro-1H-indole-3-sulfonamide] | 78
COc1nc(NS(=O)(=O)c2c[nH]c3cc(F)ccc23)nc(OC)c1OC(F)F [Example 256, N-[5-(difluoromethoxy)-4,6-dimethoxy-pyrimidin-2-yl]-6-fluoro-1H-indole-3-sulfonamide] | 215
COc1nc(NS(=O)(=O)c2c[nH]c3cc(Cl)ccc23)nc(F)c1Br [Example 73, N-(5-bromo-4-fluoro-6-methoxy-pyrimidin-2-yl)-6-chloro-1H-indole-3-sulfonamide] | 124
COCCOc1cnc(NS(=O)(=O)c2c[nH]c3cc(Cl)ccc23)nc1OC [Example 7, 6-chloro-N-[4-methoxy-5-(2-methoxyethoxy)pyrimidin-2-yl]-1H-indole-3-sulfonamide] | 403
COc1nc(NS(=O)(=O)c2c[nH]c3cc(OC(F)F)ccc23)ncc1CC(F)F [Example 104, N-[5-(2,2-difluoroethyl)-4-methoxy-pyrimidin-2-yl]-6-(difluoromethoxy)-1H-indole-3-sulfonamide] | 209
COc1nc(NS(=O)(=O)c2c[nH]c3nc(Br)ccc23)nc(OC)c1C [Example 160, 6-bromo-N-(4,6-dimethoxy-5-methyl-pyrimidin-2-yl)-1H-pyrrolo[2,3-b]pyridine-3-sulfonamide] | 11
COc1nc(NS(=O)(=O)c2c[nH]c3cc(F)ccc23)nc(OC)c1CC(F)F [Example 258, N-[5-(2,2-difluoroethyl)-4,6-dimethoxy-pyrimidin-2-yl]-6-fluoro-1H-indole-3-sulfonamide] | 37
COc1nc(NS(=O)(=O)c2c[nH]c3c2ccc2cccnc23)nc(OC)c1OC(F)F [Example 116, N-[5-(difluoromethoxy)-4,6-dimethoxy-pyrimidin-2-yl]-1H-pyrrolo[3,2-h]quinoline-3-sulfonamide] | 26
COc1nc(NS(=O)(=O)c2c[nH]c3c(F)c(Br)ccc23)nc(OC)c1OCC#N [Example 244, 6-bromo-N-[5-(cyanomethoxy)-4,6-dimethoxy-pyrimidin-2-yl]-7-fluoro-1H-indole-3-sulfonamide] | 16

More lines, in order of falling IC50, values ahead:

IC50 [nM] | Compound
1160 | COc1nc(NS(=O)(=O)c2csc3nc(C(F)F)ccc23)ncc1CC(F)F [Example 166, N-[5-(2,2-difluoroethyl)-4-methoxy-pyrimidin-2-yl]-6-(difluoromethyl)thieno[2,3-b]pyridine-3-sulfonamide]
924 | O=S(=O)(Nc1ncc(OCC(F)F)cn1)c1c[nH]c2cc(Cl)ccc12 [Example 34, 6-chloro-N-[5-(2,2-difluoroethoxy)pyrimidin-2-yl]-1H-indole-3-sulfonamide]
240 | COc1nc(NS(=O)(=O)c2c[nH]c3c4c(ccc23)CCN(C)C4=O)ncc1OCCF [Example 293, N-[5-(2-Fluoroethoxy)-4-Methoxy-Pyrimidin-2-Yl]-9-Keto-8-Methyl-6,7-Dihydro-1H-Pyrrol[3,2-h]Isoquinoline-3-Sulfonamide]
236 | CCOc1nc(NS(=O)(=O)c2c[nH]c3cc(Cl)ccc23)nc(OC)c1Br [Example 13, N-(5-bromo-4-ethoxy-6-methoxy-pyrimidin-2-yl)-6-chloro-1H-indole-3-sulfonamide]
96 | COc1nc(NS(=O)(=O)c2c[nH]c3nc(Cl)ccc23)ncc1OCCF [Example 10, 6-chloro-N-[5-(2-fluoroethoxy)-4-methoxy-pyrimidin-2-yl]-1H-pyrrolo[2,3-b]pyridine-3-sulfonamide]
83 | COc1nc(NS(=O)(=O)c2c[nH]c3cc(Cl)ccc23)nc(OC(F)F)c1Br [Example 18, N-[5-bromo-4-(difluoromethoxy)-6-methoxy-pyrimidin-2-yl]-6-chloro-1H-indole-3-sulfonamide]
43 | COc1nc(NS(=O)(=O)c2c[nH]c3nc(Br)ccc23)nc(OC)c1Br [Example 30, 6-bromo-n-(5-bromo-4,6-dimethoxy-pyrimidin-2-yl)-1h-pyrrolo[2,3-b]pyridine-3-sulfonamide]
36 | COc1nc(NS(=O)(=O)c2c[nH]c3nc(Br)ccc23)nc(OC)c1OCCF [Example 109, 6-bromo-N-[5-(2-fluoroethoxy)-4,6-dimethoxy-pyrimidin-2-yl]-1H-pyrrolo[2,3-b]pyridine-3-sulfonamide]
35 | COc1nc(NS(=O)(=O)c2c[nH]c3c(F)c(C(F)F)ccc23)nc(OC)c1OCC(F)F [Example 250, N-[5-(2,2-difluoroethoxy)-4,6-dimethoxy-pyrimidin-2-yl]-6-(difluoromethyl)-7-fluoro-1H-indole-3-sulfonamide]
29 | COc1nc(NS(=O)(=O)c2csc3nc(Br)ccc23)nc(OC)c1CCC#N [Example 151, 6-bromo-N-[5-(2-cyanoethyl)-4,6-dimethoxy-pyrimidin-2-yl]thieno[2,3-b]pyridine-3-sulfonamide]
28 | COc1nc(NS(=O)(=O)c2c[nH]c3c(OC(F)F)c(Cl)ccc23)ncc1CC(F)F [Example 188, 6-chloro-N-[5-(2,2-difluoroethyl)-4-methoxy-pyrimidin-2-yl]-7-(difluoromethoxy)-1H-indole-3-sulfonamide]
20 | COc1nc(NS(=O)(=O)c2c[nH]c3cc(Cl)ccc23)nc(OC)c1Br [Example 12, N-(5-bromo-4,6-dimethoxy-pyrimidin-2-yl)-6-chloro-1H-indole-3-sulfonamide]
14 | COc1nc(NS(=O)(=O)c2c[nH]c3c(F)c(Cl)ccc23)ncc1CCC(F)F [Example 207, 6-chloro-N-[5-(3,3-difluoropropyl)-4-methoxy-pyrimidin-2-yl]-7-fluoro-1H-indole-3-sulfonamide]
